≈ marks a conversion by molar mass, not a printed value. Entries after “also recorded” stand apart in the source; their conditions may differ. Where two headings read alike, the source gives them in different places.
Legend:
[1] = Solubility of compounds at different pH; format: physicochemical; settings: for solubility at 2 h / solubility at 20 h: 30 °C, thermodynamic from solid, read-out: Absolute Solubility; for solubility at 2 h: 2 hours incubation; for solubility at 20 h: 20 hours incubation
Experimental: Approximately 5 mg of each test compound (Compounds 1 and 5) was weighed in duplicate, and each weighed sample was transferred to a separate centrifuge tube containing 5 mL of the respective buffer. All the tubes were tightly stoppered and agitated at a constant rate at 30±1° C. using an orbital shaker.
[…] 50 μL of the buffer solution from each removed tube was transferred into a 10 mL tube and made up to the mark with diluent. Then 2.5 mL of the supernatant of each tube was transferred into a 50 mL tube and made up to […].
The nominal concentration of the solution in each 50 mL tube was 5 μg/mL.
Linearity solutions of 40 ng/mL to 10000 ng/mL were plotted.

[2] = Stability of compounds in USP/phosphate buffer pH 7.40; format: physicochemical; settings: for % remaining compared to 0.0 min: Phosphate Buffer pH 7.40, 37° C., 5 μM; for Stability compared to Compound 1 (in words): mildly basic solutions (pH 7.4)
Experimental: 5 μM solutions of Compounds 1, 3 and 5 in USP buffer (pH: 7.40) were prepared with 5 mM DMSO stock solutions.

AMPK = assay: Activation of AMPK: Western blot of p-T172 AMPK in INS-1E insulinoma cells; format: cell-based; settings: for ratio between p-T172 AMPK and non-phosphorylated AMPK: INS-1E cells, control = 1.00; for Phosphorylation of AMPK (T172) / AMPK activation (in words): cultured INS-1E cells, Western blot
Experimental: INS-1E cells were cultivated as described in Steneberg et al., JCI Insight. 2018; 3(12):e99114. https://doi.org/10.1172/jci.insight.99114, using 5% instead of 10% fetal bovine serum when plated for treatment.
Compound 3 was dissolved at 10 mM in DMSO and frozen at −20° C.
Compound 5 was dissolved at 10 mM in a 50:50 water/DMSO mixture, incubated for 15 minutes at room temperature in ultrasonic bath (VWR ultrasonic cleaner), and stored at room temperature.
The INS-1E cells were treated in serum free medium with increasing doses of Compounds 3 and 5 for 4 and 16 hours, respectively, in accordance with the methods described in Steneberg et al., JCI Insight. 2018; 3(12):e99114. https://doi.org/10.1172/jci.insight.99114.
Western blot analysis of the INS-1E cells was performed as described in Steneberg et. al., JCI Insight. 2018; 3(12):e99114. https://doi.org/10.1172/jci.insight.99114. The cell lysates were passed through a 30-gauge needle, ˜8-times and centrifuged for 10 min at +4° C. at 14000 rpm. Quantified values for AMPKα, and phosphorylated-T172 AMPKα, were normalized toward the quantified values for β-Actin.

[3] = Single dose oral pharmacokinetic study of Compounds 1 and 3 in Sprague Dawley rats; format: in vivo
Experimental: 10.0 mL of 2% w/v methyl cellulose solution in phosphate buffer (pH 7.5) was added to a 100 mL conical flask along with 1 g of 2 mm glass beads. The solution was vigorously stirred on a magnetic stirrer. 100 mg of Compound 1 was slowly added to the solution, and the solution was vigorously stirred for approximately 1 h. The pH of the formulation was measured to be 7.49. Each formulation was freshly prepared prior to administration to the animals. The final concentration of Compound 1 in of the formulation was 10 mg/mL. The formulation was administered at 5 mL/kg body weight.
10.0 mL of 2% w/v methyl cellulose solution in phosphate buffer (pH 7.5) was added to a 100 mL of conical flask together with 1 g of 2 mm glass beads. The solution was vigorously stirred on a magnetic stirrer. 134 mg of Compound 3 was slowly added to the solution, and the solution was vigorously stirred for approximately 1 h. The pH of the formulation was measured to be 7.44. Each formulation was freshly prepared prior to administration to the animals. The final concentration of Compound 3 in the formulation was 13.4 mg/mL, which is equivalent to 10 mg/mL of Compound 1. The formulation was administered at 5 mL/kg body weight.
The doses of 50 mg/kg and 67 mg/kg b.w. for Compound 1 and Compound 3, respectively, were selected for comparison of equimolar doses.
Adult healthy male Sprague Dawley rats aged 9 to 11 weeks were used for experimentation after a minimum three days of acclimatisation. Fed state animals were administered the formulation of Compound 1 or Compound 3 orally via gavage at a dose of 50 mg/kg or 67 mg/kg body weight, respectively.
Under mild isoflurane anesthesia, blood specimens were collected by retro-orbital puncture method using capillary tubes into pre-labeled tubes containing anticoagulant (K2EDTA: 2 mg/mL blood) during the next 72 hours post-dosing, as detailed in Table 6. For blood sampling at multiple time points, the right and left eyes were used alternatively. Collected blood specimens were centrifuged at 6000 rpm, 4° C. for 10 minutes and the plasma samples were separated and stored at −80° C. until analysis.

[4] = mice, Das et al. Reg Anesth Pain Med 2019, cited from earlier work
[5] = pH 4.5, aqueous buffer, Acetate Buffer, pH 4.50
[6] = pH 7.4, aqueous buffer, Phosphate Buffer, pH 7.40
[7] = pH 9.2, aqueous buffer, Alkaline Borate Buffer, pH 9.20
[8] = plasma Compound 1 after oral Compound 1, 50 mg/kg b.w., fed male rats

## O=C(/N=c1\sn(Cc2ccc(Cl)cc2)c(=O)n1COP(=O)([O-])[O-])c1ccc(Cl)cc1.[Na+].[Na+] [Compound 5, disodium {(5Z)-5-[(4-chlorobenzoyl)imino]-2-[(4-chlorophenyl)methyl]-3-oxo-1,2,4-thiadiazolidin-4-yl}methyl phosphate]
[1]; [5]
  solubility at 2 h: 15 µg/mL
  solubility at 20 h: 15 µg/mL
[1]; [6]
  solubility at 2 h: 119 µg/mL
  solubility at 20 h: 98 µg/mL
[1]; [7]
  solubility at 2 h: 720 µg/mL
  solubility at 20 h: 1240 µg/mL
[1]; Ultrapure water
  solubility at 2 h: 419 µg/mL
  solubility at 20 h: 36 µg/mL
[1]; basic solution
  Solubility relative to Compound 1: up to 30 times
[1]; basic solutions (pH>7) and mildly acidic conditions
  Solubility compared to Compound 1 (in words): higher solubility compared to Compound 1
[2]; 0.0 min
  % remaining compared to 0.0 min: 100.00%
[2]; 15 min
  % remaining compared to 0.0 min: 103.92%
[2]; 30 min
  % remaining compared to 0.0 min: 107.58%
[2]; 60 min
  % remaining compared to 0.0 min: 107.88%
[2]; 120 min
  % remaining compared to 0.0 min: 97.30%
[2]
  Stability compared to Compound 1 (in words): comparable stability to Compound 1
AMPK; 2.5 μM, 16 h, 0.05% DMSO
  ratio between p-T172 AMPK and non-phosphorylated AMPK: 1.29
AMPK; 5 μM, 16 h, 0.05% DMSO
  ratio between p-T172 AMPK and non-phosphorylated AMPK: 1.62
AMPK; 10 μM, 16 h, 0.05% DMSO
  ratio between p-T172 AMPK and non-phosphorylated AMPK: 3.21
AMPK; phosphate
  Phosphorylation of AMPK (T172) / AMPK activation (in words): increase phosphorylation of AMPK in a dose-dependent manner; also recorded: increase phosphorylated-T172 AMPK in a dose-dependent manner

## O=C(Nc1nc(=O)n(Cc2ccc(Cl)cc2)s1)c1ccc(Cl)cc1 [Compound 1, 4-chloro-N-[2-[(4-chlorophenyl)methyl]-3-oxo-1,2,4-thiadiazol-5-yl]benzamide]
[1]; [7]
  solubility at 2 h: 29 µg/mL (≈ 76.3 µM)
  solubility at 20 h: 44 µg/mL (≈ 116 µM)
[2]; 0.0 min
  % remaining compared to 0.0 min: 100.00%
[2]; 15 min
  % remaining compared to 0.0 min: 97.62%
[2]; 30 min
  % remaining compared to 0.0 min: 101.31%
[2]; 60 min
  % remaining compared to 0.0 min: 99.41%
[2]; 120 min
  % remaining compared to 0.0 min: 106.18%
[3]; male, Sprague Dawley, rat, plasma, 50 mg/kg b.w., after oral Compound 1, 50 mg/kg, 1.00 h
  concentration at 1 h: 4240 ng/mL
[3]; male, Sprague Dawley, rat, plasma, 50 mg/kg b.w., after oral Compound 1, 50 mg/kg, 2.00 h
  concentration at 2 h: 7990 ng/mL
[3]; male, Sprague Dawley, rat, plasma, 50 mg/kg b.w., after oral Compound 1, 50 mg/kg, 4.00 h
  concentration at 4 h: 14000 ng/mL
[3]; male, Sprague Dawley, rat, plasma, 50 mg/kg b.w., after oral Compound 1, 50 mg/kg, 6.00 h
  concentration at 6 h: 17000 ng/mL
[3]; male, Sprague Dawley, rat, plasma, 50 mg/kg b.w., after oral Compound 1, 50 mg/kg, 8.00 h
  concentration at 8 h: 19300 ng/mL
[3]; male, Sprague Dawley, rat, plasma, 50 mg/kg b.w., after oral Compound 1, 50 mg/kg, 24.00 h
  concentration at 24 h: 9440 ng/mL
[3]; male, Sprague Dawley, rat, plasma, after oral Compound 1, 50 mg/kg, 0.00 h
  concentration at 0 h: 0 ng/mL
[3]; male, Sprague Dawley, rat, plasma, after oral Compound 1, 50 mg/kg, 0.25 h
  concentration at 0.25 h: 620 ng/mL
[3]; male, Sprague Dawley, rat, plasma, after oral Compound 1, 50 mg/kg, 0.50 h
  concentration at 0.5 h: 1980 ng/mL
[3]; male, Sprague Dawley, rat, plasma, after oral Compound 1, 50 mg/kg, 48.00 h
  concentration at 48 h: 720 ng/mL
[3]; male, Sprague Dawley, rat, plasma, after oral Compound 1, 50 mg/kg, 72.00 h
  concentration at 72 h: 0 ng/mL
[3]; [8]
  AUCextrap: 2.33 ± 1.74%
  AUCinf: 458.31 ± 154.77 µg·h/mL
  AUClast: 449.40 ± 157.75 µg·h/mL
  Cmax: 19600 ± 5540 ng/mL
  MRTlast: 14.78 ± 0.68 h
  T1/2: 8.42 ± 1.47 h
  Tmax: 7.33 ± 1.16 h
[4]; listed as compound of formula II
  Effect on pain (in words): effective at treating pain; also recorded: capable of treating pain

## O=C(O)CCC(=O)OCn1c(=NC(=O)c2ccc(Cl)cc2)sn(Cc2ccc(Cl)cc2)c1=O (stereo in doubt) [Compound 3, 4-({(5Z)-5-[(4-chlorobenzoyl)imino]-2-[(4-chlorophenyl)methyl]-3-oxo-1,2,4-thiadiazolidin-4-yl}methoxy)-4-oxobutanoic acid]
[2]; 0.0 min
  % remaining compared to 0.0 min: 100.00%
[2]; 15 min
  % remaining compared to 0.0 min: 86.96%
[2]; 30 min
  % remaining compared to 0.0 min: 93.61%
[2]; 60 min
  % remaining compared to 0.0 min: 88.74%
[2]; 120 min
  % remaining compared to 0.0 min: 75.40%
[2]
  Stability compared to Compound 1 (in words): comparable stability to Compound 1
AMPK; 2.5 μM, 4 h, 0.1% DMSO
  ratio between p-T172 AMPK and non-phosphorylated AMPK: 1.62
AMPK; 5 μM, 4 h, 0.1% DMSO
  ratio between p-T172 AMPK and non-phosphorylated AMPK: 1.88
AMPK; 10 μM, 4 h, 0.1% DMSO
  ratio between p-T172 AMPK and non-phosphorylated AMPK: 2.95
AMPK
  Phosphorylation of AMPK (T172) / AMPK activation (in words): increase phosphorylation of AMPK in a dose-dependent manner; also recorded: increase phosphorylated-T172 AMPK in a dose-dependent manner
[3]; equimolar oral doses, rats
  Increase in systemic exposure of Compound 1 after oral Compound 3 compared to administration of Compound 1: two-fold

## CN(C)C(=N)N=C(N)N [metformin]
[4]
  Effect on pain (in words): effective at treating pain

Source: patent publication US12643918B2, “Thiadiazolone derivatives and their use as AMPK agonists for the treatment of diabetes and related disorders” (Betagenon AB, priority 2020, dated 2026)
